These are literature values, as cited in patent publication EP3913370A1, “METHOD FOR DIAGNOSING CARCINOMAS USING IRGD AS A TUMOR MARKER BOOSTER” (Piiper, Albrecht, priority 2020, dated 2021).

The conditions of data set [1]: in vivo.
The conditions of data set [2]: human, in vivo.

`N=C(N)NCCC[C@@H]1NC(=O)[C@@H](N)CSSC[C@@H](C(=O)O)NC(=O)[C@H](CC(=O)O)NC(=O)[C@@H]2CCCN2C(=O)CNC(=O)[C@H](CCCCN)NC(=O)[C@H](CC(=O)O)NC(=O)CNC1=O` [iRGD, CRGDKGPDC (SEQ ID No. 1)]: in data set [1], the “toxicity associated with administration” value is “no toxicity”. Moreover, in data set [2], the toxicity in humans result is on record as “low toxicity”.
